In ChEMBL document CHEMBL1136525, “6,7-dihydroxyisoquinoline-3-carboxylic acids are potent inhibitors on the binding of insulin-like growth factor (IGF) to IGF-binding proteins: optimization of the 1-position benzoyl side chain” (Bioorg Med Chem Lett, 2003):

target: Insulin-like growth factor-binding protein 3 (Homo sapiens, UniProt P17936); assay: Ability to displace Insulin-Like Growth Factor (IGF-I) from its binding to human insulin-like growth factor binding protein 3 (hIGFBP-3)
Sequence (P17936 whole entry): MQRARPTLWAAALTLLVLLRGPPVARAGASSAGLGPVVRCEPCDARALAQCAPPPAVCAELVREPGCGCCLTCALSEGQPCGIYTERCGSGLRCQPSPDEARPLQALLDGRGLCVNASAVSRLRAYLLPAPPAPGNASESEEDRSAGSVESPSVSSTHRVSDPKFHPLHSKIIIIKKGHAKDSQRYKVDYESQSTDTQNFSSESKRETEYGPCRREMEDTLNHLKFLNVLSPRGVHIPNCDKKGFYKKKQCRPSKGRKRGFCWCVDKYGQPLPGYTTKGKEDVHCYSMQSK

Row | SMILES | Ki [nM]
1 | O=C(O)c1cc2cc(O)c(O)cc2c(C(O)c2ccc(Oc3ccccc3)cc2)n1 (configuration not stated) | 32
2 | O=C(O)c1cc2cc(O)c(O)cc2c(C(=O)c2ccc(Oc3cc(Cl)cc(Cl)c3)c(F)c2)n1 | 9
3 | Nc1ccc(C(=O)c2nc(C(=O)O)cc3cc(O)c(O)cc23)cc1 | 130
4 | O=C(O)c1cc2cc(O)c(O)cc2c(C(=O)c2ccc(Oc3ccc(Cl)c(Cl)c3)c(F)c2)n1 | 12
5 | O=C(O)c1cc2cc(O)c(O)cc2c(C(=O)c2ccc(F)c(F)c2)n1 | 51
6 | O=C(O)c1cc2cc(O)c(O)cc2c(Cc2ccc3c(c2)OCO3)n1 | 72
7 | CS(=O)(=O)Nc1cc2cc(C(=O)O)nc(C(=O)c3ccc4c(c3)OCO4)c2cc1O | > 10000
8 | Cc1cc(C)c(C(O)c2nc(C(=O)O)cc3cc(O)c(O)cc23)c(C)c1 (configuration not stated) | 11
9 | O=C(O)c1cc2cc(O)c(O)cc2c(C(=O)c2ccc(Oc3cccc(Cl)c3)c(F)c2)n1 | 11
10 | O=C(O)c1cc2cc(O)c(O)cc2c(C(=O)c2ccc(Sc3ccc(Cl)cc3)c(F)c2)n1 | 31
11 | O=C(O)c1cc2cc(O)c(O)cc2c(C(=O)c2ccc(Cl)c(Cl)c2)n1 | 29
12 | Cc1cc(C)c(C(=O)c2nc(C(=O)O)cc3cc(O)c(O)cc23)c(C)c1 | 100
13 | O=C(O)c1cc2cc(O)c(O)cc2c(C(O)c2cccc(F)c2)n1 (configuration not stated) | 24
14 | O=C(O)c1cc2cc(O)c(O)cc2c(C(O)c2ccccc2Cl)n1 (configuration not stated) | 25
15 | Cc1ccc(Oc2ccc(C(=O)c3nc(C(=O)O)cc4cc(O)c(O)cc34)cc2F)cc1 | 9.4
16 | O=C(O)c1cc2cc(O)c(O)cc2c(C(=O)c2ccc(Oc3ccc(-c4ccccc4)cc3)c(F)c2)n1 | 32
17 | O=C(O)c1cc2cc(O)c(O)cc2c(C(=O)c2ccc(C(F)(F)F)cc2)n1 | 38
18 | O=C(O)c1cc2cc(O)c(O)cc2c(C(=O)c2ccc(Oc3ccc(C(F)(F)F)cc3)c(F)c2)n1 | 32
19 | O=C(O)c1cc2cc(O)c(O)cc2c(C(=O)c2cccc(F)c2)n1 | 110
20 | O=C(O)c1cc2cc(O)c(O)cc2c(C(=O)c2ccc([N+](=O)[O-])cc2)n1 | 32
21 | Nc1cc2cc(C(=O)O)nc(C(=O)c3ccc(O)c(O)c3)c2cc1O | 60
22 | O=C(O)c1cc2cc(O)c(O)cc2c(C(=O)c2ccc(Oc3ccc(Cl)cc3)c(F)c2)n1 | 20
23 | CCCCC(CC)CNc1ccc(C(=O)c2nc(C(=O)O)cc3cc(O)c(O)cc23)cc1F (configuration not stated) | 62
24 | Nc1cc2cc(C(=O)O)nc(C(=O)c3ccc4c(c3)OCO4)c2cc1O | 850
25 | CS(=O)(=O)Nc1ccc(C(=O)c2nc(C(=O)O)cc3cc(O)c(O)cc23)cc1 | 110
26 | O=C(O)c1cc2cc(O)c(O)cc2c(C(=O)c2ccccc2Cl)n1 | 110
27 | O=C(O)c1cc2cc(O)c(O)cc2c(C(O)c2ccc(C(F)(F)F)cc2)n1 (configuration not stated) | 18
